Measurements: patent US9394555B2, “Compositions comprising a polypeptide having cellulolytic enhancing activity and a dioxy compound and uses thereof” (priority 2010, dated 2016)

B1: T. terrestris GH61E polypeptide: GH61E polypeptide having cellulolytic enhancing activity (SEQ ID NO: 8), recombinantly produced in Aspergillus oryzae JaL250 (protein, listed as Thielavia terrestris)
chain: MLANGAIVFLAAALGVSGHYTWPRVNDGADWQQVRKADNWQDNGYVGDVTSPQIRCFQATPSPAPSVLNTTAGSTVTYWANPDVYHPGPVQFYMARVPDGEDINSWNGDGAVWFKVYEDHPTFGAQLTWPSTGKSSFAVPIPPCIKSGYYLLRAEQIGLHVAQSVGGAQFYISCAQLSVTGGGSTEPPNKVAFPGAYSATDPGILINIYYPVPTSYQNPGPAVFSC

How the values were obtained:
[1] = target: T. aurantiacus GH61A polypeptide (Thermoascus aurantiacus, UniProt G3XAP7, N13Y); experiment: Microcrystalline cellulose conversion assay II (Examples 10, 11), T. reesei CEL7A cellobiohydrolase I + A. oryzae CEL3A beta-glucosidase; type: biochemical; details: 72 hours, 50° C.; for conversion (hydrolysis) of the microcrystalline cellulose: dioxy compound 0.1% w/w alone, no enzymes
Protocol: A 5% microcrystalline cellulose slurry was prepared by addition of 2.5 g of AVICEL® PH101 to a graduated 50 ml screw-cap conical tube followed by approximately 40 ml of deionized water. Each conical tube was then mixed thoroughly by shaking/vortexing, and adjusted to 50 ml total with deionized water and mixed again. For samples containing dioxy compounds, a similar slurry was prepared by the addition of 100 mg of solid dioxy compound and 2.5 g of AVICEL® PH101 to a graduated 50 ml screw-cap conical tube followed by approximately 40 ml of deionized water. Each conical tube was then mixed thoroughly by shaking/vortexing, and adjusted to 50 ml total with deionized water and mixed again.
The dioxy compounds assayed include caffeic acid, dichlorophenolindophenol (DCPIP), ethyl gallate, gallic acid, 3,4-dihydroxybenzoic acid, pyrocatechol, pyrogallol, sinapinic acid (3,5 dimethoxy-4-hydroxy cinnamic acid), and tannic acid.
In all cases, the contents of the tube (5% microcrystalline cellulose slurry with or without 0.2% dioxy compound) were then quickly transferred to a 100 ml beaker and stirred rapidly with a magnetic stirrer. Five hundred μl aliquots of the 5% AVICEL® slurry were pipetted into wells of a 2.0 ml 96-deepwell plate (Axygen, Union City, Calif.) using a 1000 μl micropipette with a wide aperture tip (end of tip cut off about 2 mm from the base). One hundred μl of deionized water and 300 μl of 3.33 mM MnSO4-500 mM sodium acetate pH 5 were then added to each well. Enzyme mixtures were prepared and then added simultaneously to all wells in a volume of 100 μl, for a total of 1 ml in each reaction. […] All experiments reported were performed in triplicate.
Primary analysis of the hydrolysis reactions was performed using an AGILENT® 1100 HPLC with CHEMSTATION® software equipped with an AMINEX™ HPX-87H column. After approximately 4 days, the deep-well plate was removed from the incubator and chilled overnight to 4° C. The plate was then mixed well by inversion and briefly centrifuged at 52×g in a SORVALL® RT7 centrifuge for 10 seconds. Samples were then mixed by pipetting, and 200 μl from each well were transferred to a MULTISCREEN® HV centrifuge filter plate assembly. The centrifuge filter plate assembly was centrifuged at 2000 rpm in a SORVALL® RT7 centrifuge for 20 minutes. […] Sugars were detected using a refractive index detector with quantification by integration compared to purified sugar standards.
All HPLC data processing was performed using MICROSOFT EXCEL™ software. […] In this assay only glucose was measured since beta-glucosidase was at high levels in all samples but the controls. The degree of cellulose conversion was calculated using Equation 1. Triplicate data points were averaged and standard deviation was calculated.
The microcrystalline cellulose hydrolysis assay was performed as described in Example 10.
Data were collected and analyzed, as described in Example 10, after 72 hours of incubation at 50° C.

[2] = system: T. aurantiacus CEL5A endoglucanase II and P. brasilianum CEL3A beta-glucosidase; experiment: Microcrystalline cellulose conversion assay I (Examples 8, 9) without GH61 polypeptide; type: biochemical, Thermoascus aurantiacus; Penicillium brasilianum; details: dioxy compound 0.3% w/w + endoglucanase II + beta-glucosidase (5 mg/g each), no GH61; 96 hours, at either 50° C. or 60° C.
Protocol: (§1) A 5% microcrystalline cellulose slurry was prepared by addition of 2.5 g of AVICEL®PH101 (Sigma-Aldrich, St. Louis, Mo., USA) to a graduated 50 ml screw-cap conical tube followed by 15 ml of 1 M sodium acetate pH 5 and 1 ml of 100 mM MnSO4 and approximately 20 ml of deionizer water. Each conical tube was then mixed thoroughly by shaking/vortexing, and adjusted to 50 ml total with deionized water and mixed again. Contents of the tube were then quickly transferred to a 100 ml beaker and stirred rapidly with a magnetic stirrer. Five hundred μl aliquots of the 5% AVICEL® slurry were pipetted into wells of a 2.0 ml 96-deepwell plate (Axygen, Union City, Calif., USA) using a 1000 μl micropipette with a wide aperture tip (end of tip cut off about 2 mm from the base). Three hundred μl of either deionized water or a 1% dioxy compound solution (dissolved in deionized water) was added to each well.
(§2) The dioxy compounds assayed include caffeic acid (Sigma-Aldrich, St. Louis, Mo., USA), dichlorophenolindophenol (DCPIP; Sigma-Aldrich, St. Louis, Mo., USA), ethyl gallate (Sigma-Aldrich, St. Louis, Mo., USA), gallic acid (Sigma-Aldrich, St. Louis, Mo., USA), 3,4-dihydroxybenzoic acid (Sigma-Aldrich, St. Louis, Mo., USA), pyrocatechol (Sigma-Aldrich, St. Louis, Mo., USA), pyrogallol (Sigma-Aldrich, St. Louis, Mo., USA), sinapinic acid (3,5 dimethoxy-4-hydroxy cinnamic acid; Apin Chemicals LTD, Abingdon, UK), and tannic acid (Sigma-Aldrich, St. Louis, Mo., USA).
(§3) Enzyme mixtures were prepared and then added simultaneously to all wells in a volume of 200 μl, for a total of 1 ml in each reaction. […] All experiments reported were performed in triplicate.
(§4) After approximately 4 days, the deep-well plate was removed from the incubator and chilled overnight to 4° C. The plate was then mixed well by inversion and briefly centrifuged at 52×g in a SORVALL® RT7 centrifuge (Thermo Fisher Scientific, Waltham, Mass., USA) for 10 seconds. Samples were then mixed by pipetting, and 200 μl from each well were transferred to a MULTISCREEN® HV centrifuge filter plate assembly (Millipore, Bedford, Mass., USA). The centrifuge filter plate assembly was centrifuged at 2000 rpm in a SORVALL® RT7 centrifuge for 20 minutes. […] Sugars were detected using a refractive index detector (Agilent Technologies, Inc., Santa Clara, Calif., USA) with quantification by integration compared to purified sugar standards.
(§5) In this assay only glucose was measured since beta-glucosidase was at high levels in all samples but the controls.
(§6) A limit digest was performed to determine the total concentration accessible glucose equivalents using 100 mg of T. reesei cellulase (CELLIC™ CTec, Novozymes A/S, Bagsvaerd, Denmark) per gram cellulose, Triplicate data points were averaged and standard deviation was calculated.

[3] = system: T. terrestris GH61E polypeptide; experiment: Microcrystalline cellulose conversion assay I (Examples 8, 9) with T. terrestris GH61E polypeptide; type: biochemical, Thielavia terrestris; details: 96 hours
Protocol: as §1, §2, §3, §4, §5, §6

[4] = dioxy compound 0.3% w/w + T. terrestris GH61E polypeptide (10 mg/g) + endoglucanase II + beta-glucosidase (5 mg/g each), 50° C.
[5] = dioxy compound 0.3% w/w + T. terrestris GH61E polypeptide (10 mg/g) + endoglucanase II + beta-glucosidase (5 mg/g each), 60° C.

Sequence of T. aurantiacus GH61A polypeptide (G3XAP7 whole entry N13Y): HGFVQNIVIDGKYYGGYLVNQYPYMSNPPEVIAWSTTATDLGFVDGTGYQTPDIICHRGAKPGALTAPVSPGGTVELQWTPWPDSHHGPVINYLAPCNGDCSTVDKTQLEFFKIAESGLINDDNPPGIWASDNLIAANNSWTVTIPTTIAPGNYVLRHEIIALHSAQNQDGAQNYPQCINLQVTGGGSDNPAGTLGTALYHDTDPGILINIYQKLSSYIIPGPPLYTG

Molecule	conversion (hydrolysis) of the microcrystalline cellulose [1]	change in conversion of microcrystalline cellulose compared to the enzymes in the absence of the dioxy compound [2]	conversion of microcrystalline cellulose [3, 4]	conversion of microcrystalline cellulose [3, 5]	conversion of the microcrystalline cellulose ([1]; dioxy compound 0.1% w/w + cellobiohydrolase I + beta-glucosidase (5 mg/g each), no GH61)	conversion of microcrystalline cellulose ([3]; T. terrestris GH61E polypeptide (10 mg per g cellulose) + endoglucanase II + beta-glucosidase (5 mg/g each), no dioxy compound, 50° C.)	conversion of microcrystalline cellulose ([3]; T. terrestris GH61E polypeptide (10 mg per g cellulose) + endoglucanase II + beta-glucosidase (5 mg/g each), no dioxy compound, 60° C.)
O=C(O)c1ccc(O)c(O)c1 [3,4-dihydroxybenzoic acid]	no significant hydrolysis	–	–	–	–	–	–
O=C1C=CC(=Nc2cc(Cl)c(O)c(Cl)c2)C=C1 [DCPIP, dichlorophenolindophenol]	no significant hydrolysis	–	–	–	–	–	–
O=C(O)/C=C/c1ccc(O)c(O)c1 [caffeic acid]	no significant hydrolysis	no significant change	4.4±0.1%	7.0±0.1%	–	–	–
CCOC(=O)c1cc(O)c(O)c(O)c1 [ethyl gallate]	no significant hydrolysis	no significant change	6.0±0.3%	6.2±0.1%	–	–	–
Oc1ccccc1O [pyrocatechol]	no significant hydrolysis	no significant change	7.4±0.2%	7.9±0.1%	no significant change	–	–
Oc1cccc(O)c1O [pyrogallol]	no significant hydrolysis	no significant change	7.1±0.5%	9.5±0.1%	–	–	–
COc1cc(C=CC(=O)O)cc(OC)c1O [sinapinic acid, 3,5 dimethoxy-4-hydroxy cinnamic acid]	–	no significant change	6.3±0.1%	9.2±0.1%	–	–	–
O=C(OC[C@H]1O[C@@H](OC(=O)c2cc(O)c(O)c(OC(=O)c3cc(O)c(O)c(O)c3)c2)[C@H](OC(=O)c2cc(O)c(O)c(OC(=O)c3cc(O)c(O)c(O)c3)c2)[C@@H](OC(=O)c2cc(O)c(O)c(OC(=O)c3cc(O)c(O)c(O)c3)c2)[C@@H]1OC(=O)c1cc(O)c(O)c(OC(=O)c2cc(O)c(O)c(O)c2)c1)c1cc(O)c(O)c(OC(=O)c2cc(O)c(O)c(O)c2)c1 [tannic acid]	–	no significant change	5.7±0.1%	6.0±0.2%	–	–	–
B1	–	–	–	–	–	2.8±0.1%	3.1±0.1%
